Measured values reported in publication PMC8881610 (Nature Communications, 2022).
Substitutions are numbered along the chain they refer to.

What was measured:
Experiment in all cases: cAMP accumulation assay (LANCE Ultra cAMP kit), GIPR WT, mutant or modified constructs
Assay type in all cases: cell-based
Set-up in all cases: acylated tirzepatide to the full-length or modified; Flag; expressed in transfected cells; host or cells: HEK293T
GIPR [1] = target: T1, GIPR (Homo sapiens, UniProt P48546, R192A); conditions: GIPR R192A, HEK293T
T1 sequence (P48546 22-466 R192A): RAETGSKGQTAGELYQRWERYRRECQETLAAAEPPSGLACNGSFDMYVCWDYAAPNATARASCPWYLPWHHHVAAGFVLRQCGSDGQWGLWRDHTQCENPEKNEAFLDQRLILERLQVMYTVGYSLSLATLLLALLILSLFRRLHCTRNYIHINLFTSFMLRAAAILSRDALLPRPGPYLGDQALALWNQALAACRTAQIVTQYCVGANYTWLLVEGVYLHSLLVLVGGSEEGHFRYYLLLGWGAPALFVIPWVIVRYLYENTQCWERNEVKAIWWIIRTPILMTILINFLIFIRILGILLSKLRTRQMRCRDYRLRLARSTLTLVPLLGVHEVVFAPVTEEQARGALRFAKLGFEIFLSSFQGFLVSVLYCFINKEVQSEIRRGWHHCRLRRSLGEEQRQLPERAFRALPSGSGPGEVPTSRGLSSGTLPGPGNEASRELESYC
Procedure, shortened: (§1)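 HEK293T cells transiently transfected with human GIPR WT or mutant constructs (pcDNA3.1), used after 24 h. The cells were stimulated with peptide agonists for 40 min at RT in HBSS with 5 mM HEPES, 0.1% BSA or casein, and 0.5 mM IBMX. cAMP was read by LANCE Ultra TR-FRET (Eu-cAMP tracer/ULight anti-cAMP, 1 h RT, 620/650 nm).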

GIPR [2] = target: T2, GIPR (Homo sapiens, UniProt P48546, R196A); conditions: GIPR R196A, HEK293T
T2 sequence (P48546 22-466 R196A): T1 sequence (P48546 22-466 R192A) with A171R, R175A
Procedure, shortened: as §1

GIPR [3] = target: T3, GIPR (Homo sapiens, UniProt P48546, Y141A); conditions: GIPR Y141A, HEK293T
T3 sequence (P48546 22-466 Y141A): T1 sequence (P48546 22-466 R192A) with Y120A, A171R
Procedure, shortened: as §1

[4] = read-out: cAMP pEC50 (converted)

## CCCCCCCCCCCCCCCC(=O)N[C@@H](CCC(=O)NCCCC[C@H](NC(=O)[C@H](CC(=O)O)NC(=O)[C@H](CO)NC(=O)[C@@H](NC(=O)[C@H](Cc1ccccc1)NC(=O)[C@@H](NC(=O)CNC(=O)[C@H](CCC(N)=O)NC(=O)C(C)(C)NC(=O)[C@@H](N)Cc1c[nH]cn1)[C@@H](C)O)[C@@H](C)O)C(=O)N[C@@H](CO)C(=O)N[C@@H](CCCCN)C(=O)N[C@@H](Cc1ccc(O)cc1)C(=O)N[C@@H](CC(C)C)C(=O)N[C@@H](CC(=O)O)C(=O)N[C@@H](CCC(=O)O)C(=O)N[C@@H](CCCNC(=N)N)C(=O)N[C@@H](C)C(=O)N[C@@H](C)C(=O)N[C@@H](CCC(N)=O)C(=O)N[C@@H](CC(=O)O)C(=O)N[C@@H](Cc1ccccc1)C(=O)N[C@H](C(=O)N[C@@H](CCC(N)=O)C(=O)N[C@@H](Cc1c[nH]c2ccccc12)C(=O)N[C@@H](CC(C)C)C(=O)N[C@@H](CC(C)C)C(=O)N[C@@H](CC(=O)O)C(=O)NCC(=O)NCC(=O)N1CCC[C@H]1C(=O)N[C@@H](CO)C(=O)N[C@@H](CO)C(=O)NCC(=O)N[C@@H](C)C(=O)N1CCC[C@H]1C(=O)N1CCC[C@H]1C(=O)N1CCC[C@H]1C(=O)N[C@@H](CO)C(N)=O)C(C)C)C(=O)O [Peptide 20]
GIPR [1]; [4]
  EC50: 0.0302 nM
GIPR [1]; HEK-293T
  Emax: 101 ± 1.91%
GIPR [2]; [4]
  EC50: 0.0468 nM
GIPR [2]; HEK-293T
  Emax: 98.5 ± 1.43%
GIPR [3]; [4]
  EC50: 3.72 nM
GIPR [3]; HEK-293T
  Emax: 75.1 ± 1.79%
